Data set [1] concerns primary murine microglia. The data set can be described thus: Viability assay, primary microglia. In kind it is cell-based, mouse. Particulars: 24 h, concentrations up to 1000 µM. Here is the method:
Cell viability was assessed using MTT metabolism assay (U87 and BV2 cells) or MTS CellTiter 96® AQueous One Solution Cell Proliferation Assay (Promega) for the primary murine microglia cultures. Cells were cultured either in 96-well plates (U87 at density of 1×10^4) or 24-well plates (BV2 at density of 4×10^4 and primary microglia 8×10^4) with the indicated concentrations of the inhibitor or H2O (vehicle) for 24 h. MTT solution (Sigma Aldrich) was added to each well to a final concentration of 0.5 mg/mL. After 1 h of incubation at 37°C, water-insoluble dark blue formazan crystals were dissolved in DMSO. Optical densities (OD) were measured at 570 and 620 nm using a scanning multiwell spectrophotometer. The MTT assay was performed according to the manufacturer’s protocol. All measurements were carried out on three independent cell passages, in triplicates.

Data set [2] concerns GL261 tdTomato+luc+ glioma. Nature of the data set: GL261 intracranial glioma growth (tumor volume, bioluminescence). In kind it is in vivo, mouse. Here is the method: Mice were deeply anesthetized with isoflurane. After identifying the sagittal and coronal sutures on the right side, a hole was drilled at the following coordinates: 1 mm anterior and 1,5 mm lateral from bregma. GL261 tdTomato^+luc^+ glioma cells (80,000 in 1 μL of DMEM) were stereotactically injected with a Hamilton syringe to the right striatum of the mouse 3 mm deep from the surface of the brain. The skin incision was closed and mice were monitored until they completely recovered from anesthesia. Mice were randomly allocated to the study groups. The animals were weighed weekly and observed daily for clinical symptoms and evidence of toxicity by evaluating their eating, mobility, weight loss, hair loss, and hunched posture. OAT-1746 was administered by oral gavage at 50 mg/kg twice a day from day 1 after implantation. Anti-PD-1 antibody (Biolegend, GoInVivo™ Purified anti-mouse CD279) was injected intraperitoneally (i.p.) at a dose of 2.5 mg/kg on days 8, 10, 12, 14 post-implantation. Control groups received vehicle (saline) twice a day by gavage. Animals were euthanized when they lost more than 20% of body weight compared to day 0.
To monitor tumor growth, mice were injected i.p. with 150 mg/kg body weight luciferin (D-luciferin sodium salt BC218 Synchem) and left for 8 min. Then, the animals were anesthetized with 3% isoflurane and transferred to the X-treme Imaging System (Bruker, Germany). At 10 min after the D-luciferin injection, a photonic emission was imaged. Tumors were visualized at days 14, 21 and 28 after implantation and bioluminescent images were quantified as photon/sec/mm^2. […]
The animals were sacrificed on the day 21 after GL261 tdTomato^+luc^+ cell implantation and perfused with 4% paraformaldehyde in PBS. […] To quantify the tumor size, sections were stained with toluidine blue, and images were acquired using a Leica DM4000B microscope (Leica Microsystems, Wetzlar, Germany). Tumor areas were measured using ImageJ software (NIH, Bethesda, MD, USA) on every sixth brain slice, and tumor volumes were calculated as previously described ([26]).

The test system of data set [3] is glioma-associated CD11b+ cells. Nature of the data set: RNA-seq of CD11b+ cells from tumor-bearing hemispheres. In kind it is in vivo, mouse. Here is the method:
Immediately after sorting, CD11b^+ cells were centrifuged and lysed for further isolation of RNA using the RNeasy Plus Mini Kit (Qiagen, Germany). The integrity and quality of RNA were assessed on an Agilent 2100 Bioanalyzer with an RNA 6000 Pico Kit (Agilent Technologies, CA, USA). A total of 9 strand-specific RNA libraries were prepared for sequencing (2-3 biological replicates/treatment) using a KAPA Stranded mRNA-Seq Kit (Kapa Biosystems, MA, USA). Poly-A mRNAs were purified from 100 ng of total RNA using poly-T-oligo-magnetic beads (Kapa Biosystems, MA, USA). mRNAs were fragmented and a first-strand cDNA was synthesized using reverse transcriptase and random hexamers. […] Final libraries were analyzed using Bioanalyzer and Agilent DNA High Sensitivity chips (Agilent Technologies, Santa Clara, CA, USA) to confirm fragment sizes (~300 bp). Quantification was performed using a Quantus fluorometer and the QuantiFluor dsDNA System (Promega, Madison, Wisconsin, US). […]
Illumina-specific adapters, short reads, and low quality 5’ and 3’ bases were filtered out in the FASTQ format files using Trimmomatic ([27]) tool (version 0.36). The resulting RNA sequencing reads were aligned to a reference mouse genome sequence (mm10) with STAR aligner ([28]) (version 2.6.1b) using the two pass Mode Basic option. […]

For the compound `CN(C)C[C@@H]1CC[C@@H](CCB(O)O)C[C@]1(N)C(=O)O` [OAT-1746], the “viability of primary murine microglia (toxicity)” value in data set [1] is given as “not toxic”. Also, the “animals that developed tumors at day 14” value in data set [2] (bioluminescence, day 14) is on record as 5 out of 8. Further, in data set [2] (day 21, OAT-1746 50 mg/kg oral twice a day, anti-PD-1 2.5 mg/kg i.p. days 8, 10, 12, 14), the “tumor growth (tumor volume on brain sections)” value is “did not reduce the tumor growth”. Besides, the “glioma growth (bioluminescence imaging)” value in data set [2] (days 14, 21, 28 post-implantation) is listed as “did not show any effect on the tumor volume”. In data set [3], the “differentially expressed genes versus CTR (padj<0.05)” value is listed as “over 1800 genes”.

These data come from article PMC8422859, “A Novel Oral Arginase 1/2 Inhibitor Enhances the Antitumor Effect of PD-1 Inhibition in Murine Experimental Gliomas by Altering the Immunosuppressive Environment” (Frontiers in Oncology, 2021).
